Assay results as given in patent US20240132559A1, “COMPOSITIONS AND METHODS FOR MODULATING MYC EXPRESSION” (FLAGSHIP PIONEERING INNOVATIONS V, INC., priority 2020, published 2024).
“Also recorded” adds a separate entry of the source.

How the values were obtained:
[1] = test system: MYC super-enhancer and MYC promoter region; test: Targeted bisulfite sequencing of super-enhancer and promoter regions in NCI-H2009; format: cell-based, human; settings: guides 29833 and 29914, 72 hours
Description: The CRISPR-dCas9 system was modified by tethering it to epigenetic repressor: MQ1. These molecules modulate transcriptional repression methylating the CpG nucleotides of the DNA. The effector mRNA and super-enhancer guide RNAs (29833 and 29914) were co-delivered using LNP delivery with SSOP with mRNA delivery of GFP or a dCAS9-no effector construct (dCas9-NE) as negative controls. NCSLC cell line NCI-H2009 was seeded in a 6 well plates in growth media (˜100000 cells/well). LNP formulations (2.5 ug/ml) were then added to the cells to transfect the effector mRNA/guide RNA then incubated for 72 hours. DNA was isolated using Lucigen QuickExtract™ DNA extraction kit and methylated regions were determined using targeted bisulfite sequencing of the promoter and super-enhancer regions.

[2] = test system: HCC cells (HepG2, Hep3B, SKHEP1, SNU-182, SNU-449); test: Cell viability (CellTiter-GLO) of human HCC cell lines; format: cell-based; settings: 72 and 168 hours
Excerpt: This example describes down-regulating MYC1 expression by targeting KRAB effector fused to zinc finger domains to the upstream region directly adjacent to the CTCF motif (GD-28859). In this example, zinc finger-directed KRAB effectors (ZF-KRAB effectors) were designed to bind the anchor site at the DNA region targeted by GD-28859 (FIG. 4A). 7 constructs (dCas-KRAB/GD-59, ZF1-KRAB, ZF2-KRAB, ZF3-KRAB, ZF4-KRAB, ZF5-KRAB, and ZF6-KRAB) were designed and screened in human HCC models (HepG2, Hep3B, SKHEP1). Negative controls for these experiments included untreated cells and dCas9-KRAB/GD-28859 was used as positive control. RNA was isolated from two independent experiments, each done in biological triplicate, using the Rneasy® Plus 96-well Kit (Qiagen) following the Manufacture's protocol. RNA samples were retrotranscribed to cDNA using LunaScript® RT SuperMix Kit (NEB) and analyzed by quantitative PCR (qPCR) (in technical triplicates) using a MYC specific Taqman primer/probe set assay with the TaqMan™ Fast Advanced Master Mix (Thermo Scientific). MYC expression was quantified relative to the expression of GAPDH reference genes using the ΔΔCt method, the untreated and dCas9(no-effector) samples were used as calibrators. Cell viability was assessed by ATP quantification using CellTiter-GLO® Luminescent Cell Viability Assay (Promega #G9241). […]

MYC = MYC mRNA expression by qPCR in human HCC cell lines after LNP transfection; format: cell-based; settings: HepG2, Hep3B and SKHEP1
Description: In this example, dCas9-KRAB mRNA was delivered to human HCC cell lines (HepG2, Hep3B and SKHEP1) with individual sgRNA (Table 1 and FIG. 1A-B) targeting it to the CTCF motif (GD-28616), CTCF “anchor” site (GD-28859), or the MYC promoter (GD-28617). The effector mRNA and sgRNA were co-delivered using LNP delivery with SSOP. For controls, both (1) dCas9 (no effector) combined with sgRNA, and (2) untreated cells were used to assess changes. HCC cells were seeded in 96-well plates in growth media (5000 cell/well). LNP formulations (2-2.5 ug/ml) were then added to the cells to transfect the mRNA and sgRNA. All treatments were done in biological triplicate. Timepoints ranging from 24-168 hours were assessed for MYC expression and cell viability. RNA was isolated from four independent experiments using the RNeasy® plus 96-well Kit (Qiagen) following the Manufacture's protocol. RNA samples were retrotranscribed to cDNA using LunaScript® RT SuperMix Kit (NEB) and analyzed by quantitative PCR (qPCR) (in technical triplicates) using a MYC specific TaqMan™ primer/probe set assay with the TaqMan™ Fast Advanced Master Mix (Thermo Scientific). MYC expression was quantified relative to the expression of GAPDH reference genes using the ΔΔCt method. The untreated and dCas9(no-effector) samples were used as calibrators. […]

subcutaneous H460 tumors = test: H460 subcutaneous tumor model in nude mice; format: in vivo, mouse; settings: 50 mg/kg daily
Description: Disease was induced in nude mice by the implantation of subcutaneous H460 tumor cells into the left flank. Treatment was initiated when mean tumor volume reached approximately 100-150 mm^3. Mice were divided into treatment groups so that mean tumor volume in each group were approximately equal. Tumors were treated with PBS (vehicle), sorafenib (standard of care), non-coding RNA formulated in MC3 LNPs, or ZF9-MQ1 mRNA formulated in MC3 LNPs. PBS, Non-coding RNA (SEQ ID NO: 198) LNP and ZF9-MQ1 LNP were dosed at 3 mg/kg administered every five days. Sorafenib was dosed daily at 50 mg/kg. The length and width of tumors were measured twice weekly. Tumor volumes were calculated as (width^2×length)/2.

SK-HEP-1 cells = test: Sorafenib dose response viability with bi-cistronic ZF9-MQ1_ZF3-KRAB (CellTiter-GLO); format: cell-based; settings: Homo sapiens, SK-HEP1, 72 h, SKHEP-1, 72-hour
Description: (§1) In this example, the effect of bi-cistronic ZF9-MQ1_ZF3-KRAB on the small molecule sorafenib (multi-kinase inhibitor) efficacy in HCC cell lines was evaluated. Sorafenib is used as a standard of care in HCC and high MYC levels can predict sorafenib resistance. It was hypothesized that bi-cistronic ZF9-MQ1_ZF3-KRAB may re-sensitize HCC to sorafenib through its downregulation of MYC. Dose response assays were utilized to evaluate if bi-cistronic ZF9-MQ1_ZF3-KRAB treatment could decrease the IC50 of sorafenib.
(§2) To evaluate potential synergy between bi-cistronic ZF9-MQ1_ZF3-KRAB and sorafenib, Hep 3B or SK-HEP-1 cells were plated in 96 well plates at 10,000 cells per well. Cells were then treated with sorafenib at a dose range between 0.1 and 25 μM, with serial dilution of 1:2. Lipid mix carrying bi-cistronic ZF9-MQ1_ZF3-KRAB was then added to a subset of the wells at a dose of 0.1 or 0.6 μg/mL. A set of cells was treated with sorafenib alone to use as control. Following 72-hour treatment, cells were lysed with the CellTiter-GLO® reagent and luminescence was quantified using the Glo Max. Relative cell viability was calculated by averaging the untreated values and dividing each experimental luciferase value by that average.

Hep 3B cells = test: as above; format: cell-based; settings: Homo sapiens, Hep3B, 72 h
Description: as §1, §2

SKHEP1 and Hep 3B cells = test: IC50 of sorafenib or JQ1 in combination with bi-cistronic ZF9-MQ1_ZF3-KRAB; format: cell-based, human; settings: for IC50 of sorafenib: in combination with 0.1 ug/ml bi-cistronic ZF9-MQ1_ZF3-KRAB; for IC50: Homo sapiens
[3] = bi-cistronic ZF9-MQ1_ZF3-KRAB 0 μg/ml
[4] = bi-cistronic ZF9-MQ1_ZF3-KRAB 0.1 μg/ml
[5] = bi-cistronic ZF9-MQ1_ZF3-KRAB 0.6 μg/ml

Row | Compound | methylation of the distal promoter region [1] | effect on viability (in words) ([2]; HepG2 and Hep3B) | effect on viability (in words) ([2]; SK-HEP-1) | MYC mRNA down-regulation (MYC; 72 hours) | MYC expression down-regulation (in words) (MYC) | average tumor volume at the study termination (subcutaneous H460 tumors) [mm^3] | IC50 (SK-HEP-1 cells; [3]) [µM] | IC50 (SK-HEP-1 cells; [4]) [µM] | IC50 (SK-HEP-1 cells; [5]) [µM] | IC50 (Hep 3B cells; [3]) [µM] | IC50 (Hep 3B cells; [4]) [µM] | IC50 (Hep 3B cells; [5]) [µM] | IC50 of sorafenib (SKHEP1 and Hep 3B cells; Hep 3B) | IC50 (SKHEP1 and Hep 3B cells; Hep3B, Hep 3B, in combination with 0.6 ug/ml bi-cistronic ZF9-MQ1_ZF3-KRAB) [µM] | IC50 (SKHEP1 and Hep 3B cells; Hep3B, Hep 3B, sorafenib without bi-cistronic ZF9-MQ1_ZF3-KRAB) [µM] | IC50 (SKHEP1 and Hep 3B cells; SK-HEP1, SKHEP1, in combination with 0.6 ug/ml bi-cistronic ZF9-MQ1_ZF3-KRAB) [µM] | IC50 (SKHEP1 and Hep 3B cells; SK-HEP1, SKHEP1, sorafenib without bi-cistronic ZF9-MQ1_ZF3-KRAB) [µM] | IC50 of sorafenib (SKHEP1 and Hep 3B cells; SKHEP1)
1 | dCas9-MQ1: dCas9 fused to MQ1, SEQ ID NO: 35 | about 50% | dramatically decreased viability | minimally affected | 50-90% | significantly greater effect on MYC expression than any of the human dCas9-DNMTs examined or dCas9-KRAB; also recorded: down-regulated MYC expression |  |  |  |  |  |  |  |  |  |  |  |  | 
2 | CNC(=O)c1cc(Oc2ccc(NC(=O)Nc3ccc(Cl)c(C(F)(F)F)c3)cc2)ccn1 [sorafenib] |  |  |  |  |  | 752 | 12.3 | 12.3 | 10.7 | 4.4 | 4.25 | 2.9 | did not change significantly | 2.9 | 4.4 | 10.7 | 12.3 | did not change significantly
